The record followed here is ChEMBL document CHEMBL1148161, “Jaspisamides A-C, new cytotoxic macrolides from the Okinawan sponge Jaspis sp” (J Nat Prod, 1993).

Test [1] deals with L1210. Briefly: Cytotoxicity against mouse L1210 cells. Type of test: functional, cell-based.
Test [2] relates to KB. Briefly: Cytotoxicity against human KB cells. Type of test: functional, cell-based.

Converted amounts (≈) assume the structure as drawn.

For `COC(CC1OC(=O)CC(O)CC(O)CC(=O)C(C)C(OC)c2coc(n2)-c2coc(n2)-c2coc(n2)/C=C/CCC1C)C(C)CCC(=O)C(C)C(C/C=C/N(C)C=O)OC` (stereo unspecified) [JASPISAMIDE A], the IC50 in test [1] is less than 1 ng/mL; in test [2] it was 15 ng/mL (≈ 17.5 nM).
The like results for `COC(CC1OC(=O)CC(O)C/C=C/C(=O)C(C)C(OC)c2coc(n2)-c2coc(n2)-c2coc(n2)/C=C/CC(O)C1C)C(C)CCC(=O)C(C)C(C/C=C/N(C)C=O)OC` (stereo unspecified) [JASPISAMIDE B] were, in that order, less than 1 ng/mL and 6 ng/mL (≈ 7.03 nM).
The matching figures for `COC(CC1OC(=O)CC(O)C/C=C/C(=O)C(C)C(OC)c2coc(n2)-c2coc(n2)-c2coc(n2)/C=C/CCC1C)C(C)CCC(=O)C(C)C(OC)C(C)/C=C/N(C)C=O` (stereo unspecified) [JASPISAMIDE C]: less than 1 ng/mL and 13 ng/mL (≈ 15.3 nM).

By IC50 is commonly meant the concentration that inhibits the measured activity by half. A high value points to lower potency.
